Measurements from US20230174507A1, “IMIDAZOLE 3-OXIDE DERIVATIVE BASED ACSS2 INHIBITORS AND METHODS OF USE THEREOF” (METABOMED LTD., priority 2020, published 2023).

Columns and labels:
[1] = molecular target: T1, ACSS2 in MDA-MB-468 cells (Homo sapiens, UniProt Q9NR19); experiment: Cellular fatty-acid IC50: 13C-acetate incorporation into fatty acids (palmitate), LC-MS; assay type: cell-based; conditions: hypoxic conditions (1% O2), 75% charcoal stripped serum, 5 hours, 13C-acetate into palmitate, read-out: Cellular Fatty-acid IC50 High Serum MDA468
T1 construct: endogenous in cells; host or cells: MDA-MB-468 cells, hypoxia (1% O2)
T1 sequence (Q9NR19 whole entry): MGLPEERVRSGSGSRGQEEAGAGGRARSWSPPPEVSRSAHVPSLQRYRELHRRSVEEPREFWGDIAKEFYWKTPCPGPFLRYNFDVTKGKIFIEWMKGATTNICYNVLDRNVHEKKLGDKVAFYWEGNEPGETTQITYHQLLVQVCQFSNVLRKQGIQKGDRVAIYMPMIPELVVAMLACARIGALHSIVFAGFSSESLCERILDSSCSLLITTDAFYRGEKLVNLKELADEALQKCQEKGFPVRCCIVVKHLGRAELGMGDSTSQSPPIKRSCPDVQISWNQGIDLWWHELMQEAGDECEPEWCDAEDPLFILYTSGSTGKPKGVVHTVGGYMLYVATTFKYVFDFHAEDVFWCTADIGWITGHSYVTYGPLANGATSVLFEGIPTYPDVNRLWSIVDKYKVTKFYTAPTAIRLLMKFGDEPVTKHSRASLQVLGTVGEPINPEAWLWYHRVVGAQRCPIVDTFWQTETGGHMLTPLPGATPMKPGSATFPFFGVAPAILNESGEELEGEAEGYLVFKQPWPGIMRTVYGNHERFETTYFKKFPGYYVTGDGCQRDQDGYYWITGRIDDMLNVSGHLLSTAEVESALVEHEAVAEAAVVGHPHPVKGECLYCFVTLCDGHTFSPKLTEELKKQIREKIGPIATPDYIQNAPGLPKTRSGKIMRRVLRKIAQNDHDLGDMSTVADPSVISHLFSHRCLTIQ
Method: Cellular Fatty-Acid IC50 Determination:
The cellular activity of ACSS2 was measured in MDA-MB-468 cells under hypoxic conditions by tracing the incorporation of labelled carbons from ^13C-acetate into newly synthesized fatty acids. The assay was performed using 75% charcoal stripped serum (high serum conditions).
MDA-MB-468 cells were seeded in 12-well plates (0.35×10^6 cells per well) in plating medium (Dulbecco's Modified Eagle Medium containing 25 mM D-glucose, 1 mM sodium pyruvate, 10% v/v fetal bovine serum, and 2 mM glutamine) and incubated for 24 hours under hypoxic conditions (1% O2).
The next day, tracing medium containing DMEM (01-057-1A) containing 75% charcoal stripped serum (Biological industries 04-201-1A), 3.5 μg/mL Biotin (Sigma-Aldrich B4639), 1 mM Pyruvate, 5.5 mM Glucose, 0.65 mM Glutamine and 0.5 mM ^13C-Acetate (Sigma-Aldrich #282014) with serial dilutions of the compounds in the range of 0.000512-1000 nM were prepared. The plating medium was replaced with 1 mL tracing medium plus compounds and the cells were incubated for 5 hours under hypoxic conditions (1% O2). Plating medium in control wells (without cells or without compounds) was replaced with 1 mL tracing medium containing 0.01% v/v DMSO.
The level of ^13C-acetate incorporation into fatty acids (palmitate) was measured by LC-MS analysis and IC50 as described below:
Sample Preparation for LC-MS
• a) Cells were washed twice with cold phosphate buffered saline (PBS), scraped into 0.5 mL EDTA pH 8.0, and transferred into 1.1 mL V-shaped HPLC glass tubes. • b) The cell suspensions were centrifuged for 5 minutes at 400×g, 4° C. and the supernatants were removed. • c) Cell pellets were frozen at −80° C.
• d) Cell pellets were resuspended in 0.2 mL of 80% v/v ethanol in water containing 0.02 M NaOH in 1.1 ml glass (v-bottom) HPLC vials. • e) The vials were closed tight and incubated at 66° C. for 60 minutes. • f) Acetonitrile containing 2% v/v formic acid (150 μL) was added to each vial and the mixtures were transferred to Eppendorf tubes for centrifugation at 17 000×g for 20 minutes. • g) Supernatants were transferred to LC-MS vials.
The relative palmitate concentration was measured by LC-MS in reconstructed selected ion monitoring (RSIM) mode and negative ion mode. Samples were analyzed on a Phenomenex Kinetex 2.6 μm XB-C18 150×2.1 mm column at 45° C. (0.4 mL/minute flow rate) using: • a) A gradient from 15% A/85% C to 100% C for 0 to 2 minutes (A: water containing 5% v/v acetonitrile, 10 mM ammonium acetate, and 10 mM acetic acid; C: a mixture of 50% v/v acetonitrile and 50% v/v methanol). • b) Isocratic flow (100% C) for 2 to 5 minutes. • c) Equilibration in isocratic conditions (15% A/85% C) for 5 to 8 minutes.
Palmitate was eluted at approximately 3.4 minutes.
The percent inhibition was calculated relative to the sample without compound and after background deduction. IC50 values were calculated using non-linear regression curve fit analysis with 0% and 100% constraints (CDD Vault, Collaborative Drug Discovery, Inc. or GraphPad Prism).
The inhibitory activities of each compound against ACSS2 in MDA-MB-468 cells under high serum conditions, as determined by ^13C-acetate incorporation into fatty acids (palmitate), are presented in Table 2.

human ACSS1 protein = molecular target: T2, human ACSS1 protein (Homo sapiens, UniProt Q9NUB1); experiment: ACSS1 cell-free activity assay (pyrophosphatase-coupled, Biomol green); assay type: biochemical; conditions: 5 nM human ACSS1, 30 minutes at room temperature, absorbance at 620 nm; for IC50: read-out: ACSS1 Biochemical IC50
T2 construct: purchased MyBioSource
T2 sequence (Q9NUB1 38-689): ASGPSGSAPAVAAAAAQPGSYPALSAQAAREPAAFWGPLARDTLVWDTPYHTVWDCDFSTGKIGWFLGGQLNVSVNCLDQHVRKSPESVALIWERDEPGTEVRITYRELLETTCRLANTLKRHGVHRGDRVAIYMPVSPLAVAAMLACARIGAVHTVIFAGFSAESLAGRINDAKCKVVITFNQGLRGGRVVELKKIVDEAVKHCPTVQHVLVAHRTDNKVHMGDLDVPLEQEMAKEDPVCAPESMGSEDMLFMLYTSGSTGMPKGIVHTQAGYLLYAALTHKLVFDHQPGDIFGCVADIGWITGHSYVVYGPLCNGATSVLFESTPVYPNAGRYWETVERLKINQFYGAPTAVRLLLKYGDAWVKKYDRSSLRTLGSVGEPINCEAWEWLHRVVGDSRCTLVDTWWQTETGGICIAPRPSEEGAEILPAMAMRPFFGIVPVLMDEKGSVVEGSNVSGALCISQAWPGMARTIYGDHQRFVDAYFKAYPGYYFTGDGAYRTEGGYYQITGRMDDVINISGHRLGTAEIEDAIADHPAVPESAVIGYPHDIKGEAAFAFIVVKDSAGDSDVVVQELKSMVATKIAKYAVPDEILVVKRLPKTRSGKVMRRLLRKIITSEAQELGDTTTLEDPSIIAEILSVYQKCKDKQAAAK
Outline: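 5 nM human ACSS1 incubated 30 min at RT with compound in pH 7.5 Hepes buffer with 15 μM CoA, 5 mM acetate, 300 μM ATP, 2 mM MgCl2 and pyrophosphatase. Released phosphate detected with Biomol Green (30 min), absorbance 620 nm. IC50 from constrained non-linear regression.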

human ACSS2 protein = molecular target: T3, human ACSS2 protein (Homo sapiens, UniProt Q9NR19); experiment: ACSS2 cell-free activity assay (pyrophosphatase-coupled, Biomol green); conditions: 10 nM human ACSS2, 90 minutes at 37 C, absorbance at 620 nm; read-out: ACSS2 Biochemical IC50
T3 construct: purchased OriGene Technologies, Inc
T3 sequence (Q9NR19 whole entry): as the sequence (Q9NR19 whole entry) above
Outline: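 10 nM human ACSS2 incubated 90 min at 37 C with compound, 300 μM ATP, 10 μM CoA, 5 mM NaAc in pH 7.5 Hepes buffer with 0.5 U/ml pyrophosphatase. Released phosphate detected with Biomol Green at 620 nm; IC50 by non-linear regression constrained to 0% and 100%.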

SMILES | IC50 [1] | ACSS1 Biochemical IC50 (nM) (human ACSS1 protein) | IC50 (human ACSS2 protein) | IC50 (human ACSS1 protein)
Cc1cccc(C)c1-c1cc(-c2[nH]c(C)c(C(=O)Nc3cccc(C(F)(F)F)c3)[n+]2[O-])ccc1F [Compound 203, 2-(6-fluoro-2′,6′-dimethyl-[1,1′-biphenyl]-3-yl)-5-methyl-4-((3-(trifluoromethyl)phenyl)carbamoyl)-1H-imidazole 3-oxide] | > 50 nM | Inactive | < 1 nM | 
COc1ccc(-c2[nH]c(C)c(C(=O)Nc3cccc(S(=O)(=O)N(C)C)c3)[n+]2[O-])cc1-c1c(C)cccc1C [Compound 179, 4-((3-(N,N-dimethylsulfamoyl)phenyl)carbamoyl)-2-(6-methoxy-2′,6′-dimethyl-[1,1′-biphenyl]-3-yl)-5-methyl-1H-imidazole 3-oxide] | > 50 nM | Inactive | 1 to 30 nM | 
CNC(=O)c1cccc(NC(=O)c2c(C)[nH]c(-c3cc(NC)cc(-c4c(C)cccc4C)c3)[n+]2[O-])c1 [Compound 181, 2-(2′,6′-dimethyl-5-(methylamino)-[1,1′-biphenyl]-3-yl)-5-methyl-4-((3-(methylcarbamoyl)phenyl)carbamoyl)-1H-imidazole 3-oxide] | < 20 nM |  | < 1 nM | > 30 nM
CCC(F)(F)c1cccc(NC(=O)c2c(C)[nH]c(-c3cc(-c4c(C)cccc4C)c(OC)cc3O)[n+]2[O-])c1 [Compound 123, 4-((3-(1,1-difluoropropyl)phenyl)carbamoyl)-2-(4-hydroxy-6-methoxy-2′,6′-dimethyl-[1,1′-biphenyl]-3-yl)-5-methyl-1H-imidazole 3-oxide] | < 20 nM | Inactive | < 1 nM | 
Cc1cccc(C)c1-c1cc(CN(C)C)cc(-c2[nH]c(C)c(C(=O)Nc3cccc(C(F)(F)C4CC4)c3)[n+]2[O-])c1 [Compound 175, 4-((3-(cyclopropyldifluoromethyl)phenyl)carbamoyl)-2-(5-((dimethylamino)methyl)-2′,6′-dimethyl-[1,1′-biphenyl]-3-yl)-5-methyl-1H-imidazole 3-oxide] | < 20 nM | Inactive | < 1 nM | 
Cc1cccc(C)c1-c1cc(F)cc(-c2[nH]c(C)c(C(=O)Nc3cccc(C(F)(F)C4CC4)c3)[n+]2[O-])c1 [Compound 129, 4-((3-(cyclopropyldifluoromethyl)phenyl)carbamoyl)-2-(5-fluoro-2′,6′-dimethyl-[1,1′-biphenyl]-3-yl)-5-methyl-1H-imidazole 3-oxide] | > 50 nM | Inactive | < 1 nM | 
COc1ccc(-c2[nH]c(C)c(C(=O)Nc3cccc(-c4ncon4)c3)[n+]2[O-])cc1-c1c(C)cccc1C [Compound 190, 4-((3-(1,2,4-oxadiazol-3-yl)phenyl)carbamoyl)-2-(6-methoxy-2′,6′-dimethyl-[1,1′-biphenyl]-3-yl)-5-methyl-1H-imidazole 3-oxide] | < 20 nM | Inactive | < 1 nM | 
CNS(=O)(=O)c1cccc(NC(=O)c2c(C)[nH]c(-c3ccc(OC)c(-c4c(C)cccc4C)c3)[n+]2[O-])c1 [Compound 187, 2-(6-methoxy-2′,6′-dimethyl-[1,1′-biphenyl]-3-yl)-5-methyl-4-((3-(N-methylsulfamoyl)phenyl)carbamoyl)-1H-imidazole 3-oxide] | 20 to 50 nM | Inactive | < 1 nM | 

More lines, now with the values ahead:

IC50 [1] | ACSS1 Biochemical IC50 (nM) (human ACSS1 protein) | IC50 (human ACSS2 protein) | IC50 (human ACSS1 protein) | SMILES
< 20 nM | Inactive | < 1 nM |  | COc1ccc(-c2[nH]c(C)c(C(=O)Nc3cccc(C(F)(F)F)c3)[n+]2[O-])cc1-c1c(C)cccc1C [Compound 171, 2-(6-methoxy-2′,6′-dimethyl-[1,1′-biphenyl]-3-yl)-5-methyl-4-((3-(trifluoromethyl)phenyl)carbamoyl)-1H-imidazole 3-oxide]
> 50 nM | Inactive | 1 to 30 nM |  | Cc1[nH]c(-c2ccc(OCCCN3CCCC3)cc2)[n+]([O-])c1C(=O)Nc1cccc(C(F)(F)C2CC2)c1 [Compound 174, 4-((3-(cyclopropyldifluoromethyl)phenyl)carbamoyl)-5-methyl-2-(4-(3-(pyrrolidin-1-yl)propoxy)phenyl)-1H-imidazole 3-oxide]
20 to 50 nM | Inactive | < 1 nM |  | CCC(F)(F)c1cccc(NC(=O)c2c(C)[nH]c(-c3ccc(Cl)c(-c4c(C)cccc4C)c3)[n+]2[O-])c1 [Compound 108, 2-(6-chloro-2′,6′-dimethyl-[1,1′-biphenyl]-3-yl)-4-((3-(1,1-difluoropropyl)phenyl)carbamoyl)-5-methyl-1H-imidazole 3-oxide]
< 20 nM |  | < 1 nM | > 30 nM | CNC(=O)c1cccc(NC(=O)c2c(C)[nH]c(-c3cc(N)cc(-c4c(C)cccc4C)c3)[n+]2[O-])c1 [Compound 180, 2-(5-amino-2′,6′-dimethyl-[1,1′-biphenyl]-3-yl)-5-methyl-4-((3-(methylcarbamoyl)phenyl)carbamoyl)-1H-imidazole 3-oxide]
20 to 50 nM | Inactive | < 1 nM |  | CCC(F)(F)c1cccc(NC(=O)c2c(C)[nH]c(-c3ccc(OC)c(-c4c(Cl)cccc4Cl)c3)[n+]2[O-])c1 [Compound 126, 2-(2′,6′-dichloro-6-methoxy-[1,1′-biphenyl]-3-yl)-4-((3-(1,1-difluoropropyl)phenyl)carbamoyl)-5-methyl-1H-imidazole 3-oxide]
> 50 nM | Inactive | < 1 nM |  | COc1cc(F)c(-c2[nH]c(C)c(C(=O)Nc3cccc(C(F)(F)F)c3)[n+]2[O-])cc1-c1c(F)cccc1F [Compound 207, 5-methyl-2-(2′,4,6′-trifluoro-6-methoxy-[1,1′-biphenyl]-3-yl)-4-((3-(trifluoromethyl)phenyl)carbamoyl)-1H-imidazole 3-oxide]
